Results on 1 molecule are retold here after patent US10780127B2, “Method for producing fermented milk having high angiotensin converting enzyme inhibitory activity and method for producing physiologically active peptide” (NATIONAL UNIVERSITY CORPORATION TOTTORI UNIVERSITY, priority 2016, dated 2020).

The target in assay [1] is T1, ACE (Homo sapiens, UniProt P12821). Briefly: Reported IC50 value of YP for ACE. Type of assay: biochemical. Particulars: corresponds to 720 μM; read-out: IC50 value of YP for ACE, corresponding mass concentration (converted).
Assay [2] has as its target T1, ACE. The following applies: reported value; read-out: IC50 value of YP for ACE; cited from earlier work.

Like-named read-outs stand apart in the source and are kept apart here. Peptide text beside a SMILES is read from it.

T1 sequence (P12821 30-1306, species assumed): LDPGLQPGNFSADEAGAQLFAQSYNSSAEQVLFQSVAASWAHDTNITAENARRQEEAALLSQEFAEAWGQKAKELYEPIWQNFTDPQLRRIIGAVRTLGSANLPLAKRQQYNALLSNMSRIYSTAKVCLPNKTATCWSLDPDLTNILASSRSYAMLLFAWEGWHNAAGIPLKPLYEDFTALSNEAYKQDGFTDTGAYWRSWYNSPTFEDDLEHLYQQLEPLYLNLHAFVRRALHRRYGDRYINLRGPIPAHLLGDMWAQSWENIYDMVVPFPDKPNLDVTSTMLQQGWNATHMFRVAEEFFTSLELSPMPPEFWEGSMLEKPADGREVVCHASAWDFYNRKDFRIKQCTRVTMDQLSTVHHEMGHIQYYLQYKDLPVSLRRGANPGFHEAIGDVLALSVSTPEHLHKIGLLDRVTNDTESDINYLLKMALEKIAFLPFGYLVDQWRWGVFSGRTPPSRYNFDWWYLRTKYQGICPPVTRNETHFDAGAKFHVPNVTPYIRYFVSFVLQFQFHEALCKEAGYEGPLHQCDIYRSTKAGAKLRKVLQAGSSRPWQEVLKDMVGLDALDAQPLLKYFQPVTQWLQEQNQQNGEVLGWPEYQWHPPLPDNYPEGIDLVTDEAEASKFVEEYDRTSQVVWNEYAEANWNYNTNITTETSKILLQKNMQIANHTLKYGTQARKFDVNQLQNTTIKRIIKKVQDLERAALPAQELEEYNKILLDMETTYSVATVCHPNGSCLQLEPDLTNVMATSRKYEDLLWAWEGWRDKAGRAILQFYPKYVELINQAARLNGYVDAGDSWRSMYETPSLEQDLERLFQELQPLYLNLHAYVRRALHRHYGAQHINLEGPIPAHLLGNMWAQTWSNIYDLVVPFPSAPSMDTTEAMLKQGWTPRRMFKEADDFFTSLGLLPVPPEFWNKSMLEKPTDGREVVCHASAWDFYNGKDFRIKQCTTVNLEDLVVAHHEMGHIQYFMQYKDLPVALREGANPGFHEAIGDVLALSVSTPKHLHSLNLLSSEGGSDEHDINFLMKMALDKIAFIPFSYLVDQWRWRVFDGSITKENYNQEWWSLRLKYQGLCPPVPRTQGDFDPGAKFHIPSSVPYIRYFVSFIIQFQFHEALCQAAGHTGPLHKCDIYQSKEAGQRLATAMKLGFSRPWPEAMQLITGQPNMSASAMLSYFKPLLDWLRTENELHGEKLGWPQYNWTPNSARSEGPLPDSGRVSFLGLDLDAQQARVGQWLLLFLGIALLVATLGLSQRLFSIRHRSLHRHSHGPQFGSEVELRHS

Turning to `N[C@@H](Cc1ccc(O)cc1)C(=O)N1CCC[C@H]1C(=O)O` [YP, Tyr-Pro] (H-Tyr-Pro-OH), the IC50 at ACE [1] was 719 µM; on ACE [2] it was 720 µM.
